Reference: ChEMBL document CHEMBL1201862, “PubChem BioAssay data set” (2004)
Active and inactive are the calls of the source.

Legend:
[1] = HPDE-C7 pancreatic duct cell viability loss – fluorescence, HTS (AID 430); assay type: functional, cell-based; settings: Homo sapiens
[2] = viability loss of HPDE-C7K cells – cell-based, fluorescence, HTS, primary screen (AID 431); assay type: functional; settings: Homo sapiens
[3] = Luminescence Cell-Based Dose Retest to Confirm Inhibitors of Cancer Stem Cells. [Related pubchem assays (depositor defined):AID2717, AID2721]; assay type: functional; settings: Homo sapiens
Leucine aminopeptidase = target: T1, Leucine aminopeptidase (Plasmodium falciparum 3D7, UniProt Q8IL11); assay: P. falciparum M17LAP inhibitors, primary screen, biochemical, fluorogenic H-Leu-NHMec substrate, 1536-well (AID 1619); assay type: functional
T1 sequence (Q8IL11 whole entry): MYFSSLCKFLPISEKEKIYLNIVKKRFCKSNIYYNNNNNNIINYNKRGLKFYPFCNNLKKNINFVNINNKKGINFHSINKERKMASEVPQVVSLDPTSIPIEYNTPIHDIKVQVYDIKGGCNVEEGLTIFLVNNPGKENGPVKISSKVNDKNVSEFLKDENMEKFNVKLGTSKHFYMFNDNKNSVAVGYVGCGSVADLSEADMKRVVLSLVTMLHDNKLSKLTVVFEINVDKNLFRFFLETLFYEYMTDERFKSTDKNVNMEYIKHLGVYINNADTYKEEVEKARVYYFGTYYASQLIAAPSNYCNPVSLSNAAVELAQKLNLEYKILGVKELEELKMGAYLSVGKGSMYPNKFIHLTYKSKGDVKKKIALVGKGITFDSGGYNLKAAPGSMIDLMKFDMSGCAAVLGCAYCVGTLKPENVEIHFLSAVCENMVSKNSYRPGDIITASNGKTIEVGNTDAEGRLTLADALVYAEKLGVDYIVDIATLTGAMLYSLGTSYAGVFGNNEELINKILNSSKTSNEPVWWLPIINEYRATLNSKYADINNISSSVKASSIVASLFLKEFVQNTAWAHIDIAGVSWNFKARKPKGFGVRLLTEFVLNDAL

Vero [4] = assay: cells; assay type: functional, cell-based; settings: Chlorocebus sabaeus
Vero [5] = assay: cells; assay type: functional; settings: Chlorocebus sabaeus
[6] = P. falciparum Dd2 growth inhibitors, dose response, SYBR Green, cherry-picked samples (AID 1159567); assay type: functional, cell-based
[7] = tested on: Streptococcus sp. 'group A'; assay: Streptococcus pyogenes SK(-)GAS viability under kanamycin – luminescence, BacTiterGlo, confirmation, counter-screen for streptokinase expression inhibitor project, dose response (AID 1900); assay type: functional, organism-based
Streptokinase A = target: T2, Streptokinase A (Streptococcus pyogenes serotype M1, UniProt P10520); assay: viability-normalized secreted streptokinase activity reduction – plasminogen activation absorbance, OD405, dose response (AID 1914); assay type: functional, Streptococcus pyogenes M1 GAS;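 note: secreted streptokinase activity via plasminogen activation per viability signal from cell pellet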
T2 sequence (P10520 whole entry): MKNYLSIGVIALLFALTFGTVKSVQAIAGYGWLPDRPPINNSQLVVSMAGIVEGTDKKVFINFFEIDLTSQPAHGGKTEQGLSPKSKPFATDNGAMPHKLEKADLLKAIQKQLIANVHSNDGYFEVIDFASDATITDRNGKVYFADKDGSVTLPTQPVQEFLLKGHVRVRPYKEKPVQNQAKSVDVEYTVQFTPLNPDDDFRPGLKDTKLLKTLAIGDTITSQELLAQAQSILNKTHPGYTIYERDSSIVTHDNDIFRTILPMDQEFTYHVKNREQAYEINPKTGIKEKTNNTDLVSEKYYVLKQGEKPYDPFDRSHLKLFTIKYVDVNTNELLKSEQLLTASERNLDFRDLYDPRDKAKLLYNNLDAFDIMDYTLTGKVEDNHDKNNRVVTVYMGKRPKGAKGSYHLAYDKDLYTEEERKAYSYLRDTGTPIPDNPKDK

Streptococcus = assay: GAS UMAA2166 growth inhibition – luminescence, BacTiterGlo, counter-screen for streptokinase expression inhibitor project, dose response (AID 1915); assay type: functional, organism-based;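 note: potency for reduction of bacterial viability or growth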
[8] = viability of uninfected HEp-2 cells – cell-based, HTS, cytotoxicity control for RSV inhibitor project, dose response (AID 2410); assay type: functional; settings: human respiratory syncytial virus
[9] = microbe, parasite or virus in culture; assay type: functional; settings: Mycobacterium tuberculosis
[10] = target: T3, Ubiquitin-conjugating enzyme E2 N (Homo sapiens, UniProt P61088); assay type: functional;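 note: Dose-response confirmation in a TR-FRET assay detecting UBC13-driven polyubiquitin chain formation, inhibition measured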
T3 sequence (P61088 whole entry): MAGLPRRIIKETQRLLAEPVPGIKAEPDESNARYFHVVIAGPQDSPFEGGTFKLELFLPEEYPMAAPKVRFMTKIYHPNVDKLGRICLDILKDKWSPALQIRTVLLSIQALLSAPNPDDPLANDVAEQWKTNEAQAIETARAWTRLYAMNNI

[11] = A549 cell cytotoxicity, dose response, cytotoxicity control, plate reader, cherry-pick, antagonist series (AID 743412); assay type: functional, cell-based
[12] = toxicity toward HepG2 liver cells – cell-based, plate reader, cherry-pick, antagonist series, cytotoxicity control, dose response (AID 743416); assay type: functional
[13] = blockers of bursicon-stimulated LGR2 cAMP reporter – cell-based, HEK293, CRE-luciferase reporter, cherry pick, set 2, dose response (AID 743343); assay type: functional;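 note: transfected cells were stimulated with diluted bursicon conditioned medium after compound addition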
[14] = blockade of melanocortin 4 receptor signaling – cell-based, plate reader, cherry pick, counter-screen for LGR2 antagonist project, dose response (AID 743444); assay type: functional;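 note: transfected HEK 293 cells stimulated with alpha-MSH peptide; potency of inhibitors of the alpha-MSH evoked signal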
[15] = viability loss in HEK293 cells – cell-based, plate reader, cherry-picked samples, cytotoxicity control, dose response (AID 743446); assay type: functional
[16] = Luminescence-based cell-based high throughput dose response assay to identify activators of the DAF-12 from the parasite S. stercoralis (ssDAF-12).; assay type: functional
[17] = target: T4, Oxysterols receptor LXR-beta (Homo sapiens, UniProt P55055); assay: LXR agonists, Gal4 luciferase reporter, dose response, counter-screen for ssDAF-12 agonist project, cell-based, luminescence, HEK293, S. stercoralis campaign (AID 720737); assay type: functional; settings: read-out: IC50 (the source's name)
T4 sequence (P55055 whole entry): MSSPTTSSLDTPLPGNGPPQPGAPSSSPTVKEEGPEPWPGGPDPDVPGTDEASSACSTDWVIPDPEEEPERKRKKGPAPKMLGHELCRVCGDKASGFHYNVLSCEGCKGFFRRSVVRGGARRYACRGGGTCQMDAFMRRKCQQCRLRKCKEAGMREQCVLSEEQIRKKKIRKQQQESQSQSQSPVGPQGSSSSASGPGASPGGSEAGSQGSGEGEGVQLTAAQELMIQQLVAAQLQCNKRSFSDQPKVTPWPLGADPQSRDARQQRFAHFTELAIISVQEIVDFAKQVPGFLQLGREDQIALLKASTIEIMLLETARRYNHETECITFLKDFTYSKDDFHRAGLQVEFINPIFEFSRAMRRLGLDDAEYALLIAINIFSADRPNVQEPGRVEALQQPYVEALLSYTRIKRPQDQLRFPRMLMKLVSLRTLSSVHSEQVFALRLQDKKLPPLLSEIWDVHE

N#CC1=C(SCC(=O)c2ccc(Cl)cc2)N=C2CCCC(O)=C2C1c1ccco1 (configuration not stated)
EC50 [1]: 7.64 µM (active)
EC50 [2]: 7.7 µM (active)
AC50 [3]: 2.64 µM (active)

CC(=O)/C(C#N)=C1\NC(=O)C(Cc2ccccc2Cl)S1 (configuration not stated)
IC50 (Leucine aminopeptidase): 26.6 µM (active)
IC50 (Vero [4]): 2.83 µM (active)
CC50 (Vero [5]): 18.9 µM (active)

C[C@@H]1CN([C@@H](C)CO)C(=O)c2c(c3ccccc3n2C)-c2ccccc2CO[C@@H]1CN(C)C(=O)[C@H](C)c1ccccc1
AC50 [6]: 3.29 µM (active)

O=C(Cc1cccs1)NNC(=S)NC(=O)c1ccccc1
IC50 (Leucine aminopeptidase): 30 µM (active)
EC50 [7]: 4.36 µM (active)
EC50 (Streptokinase A): > 150 µM (not active)
EC50 (Streptococcus): 16.9 µM (active)

CSc1ncccc1C(=O)Nc1nc(C(C)(C)C)cs1
CC50 [8]: 49.6 µM (active)
IC50 (cells): 4.75 µM (active)

O=C(C1CCOCC1)N1[C@H](CO)[C@@H](c2ccccc2)C12CN(Cc1cccc(Cl)c1)C2
AC50 [6]: 5.41 µM (active)

COc1ccc(C(=O)N/C(=C/c2cccs2)c2nc3ccccc3[nH]2)cc1OC
IC50 (cells): 22.6 µM (active)

Ic1ccccc1CN[C@@H]1C2CCN(CC2)[C@@H]1C(c1ccccc1)c1ccccc1
CC50 [9]: 12.6 µM (active)
IC50 [10]: > 20 µM (inactive)
AC50 [11]: 7.99 µM (active)
AC50 [12]: 8.05 µM (active)
AC50 [13]: 18.1 µM (active)
AC50 [14]: 21.6 µM (active)
AC50 [15]: 13.9 µM (active)

Oc1cc(O)c2sc3nc(-c4cccnc4)cc(C(F)(F)F)c3c2n1
IC50 (Leucine aminopeptidase): 58.2 µM (active)

N#Cc1cc2ccccc2nc1SCc1ccccn1
IC50 [16]: > 67.5 µM (inactive)
EC50 [17]: > 67.5 µM (inactive)

CCOc1ccc(N(Cc2cc3cc(OC)ccc3nc2O)S(C)(=O)=O)cc1
EC50 [1]: > 20 µM (not active)
EC50 [2]: > 20 µM (not active)
